Columns and labels:
[1] = system: patient-derived bladder carcinoma; assay: In vivo efficacy, patient-derived bladder carcinoma model; set-up: species or system mouse; conditions: in combination with standard-dose gemcitabine; data not shown
Protocol: (§1) A program of in vivo efficacy studies was performed to assess the activity of SRA737 in combination with genotoxic chemotherapy and targeted agents, and as monotherapy.
(§2) One of these models also carried a MYCN amplification. A fourth HGSOC PDX model with partial resistance to PARPi was also sensitive to high dose SRA737 monotherapy.

[2] = Parallel artificial membrane permeability assay (PAMPA); format: in vitro ADME
Protocol: The membrane permeability of SRA737 was assessed in the parallel artificial membrane permeability assay (PAMPA) and Caco-2 assays. Permeability in the PAMPA assay was classified as low.

Chk1 = target: T1, Chk1 (Homo sapiens, UniProt O14757); assay: In vitro genotoxic chemotherapy-induced Chk1 autophosphorylation, checkpoint arrest and cytotoxicity potentiation; format: cell-based
T1 construct: endogenous in cells
T1 sequence (O14757 1-476): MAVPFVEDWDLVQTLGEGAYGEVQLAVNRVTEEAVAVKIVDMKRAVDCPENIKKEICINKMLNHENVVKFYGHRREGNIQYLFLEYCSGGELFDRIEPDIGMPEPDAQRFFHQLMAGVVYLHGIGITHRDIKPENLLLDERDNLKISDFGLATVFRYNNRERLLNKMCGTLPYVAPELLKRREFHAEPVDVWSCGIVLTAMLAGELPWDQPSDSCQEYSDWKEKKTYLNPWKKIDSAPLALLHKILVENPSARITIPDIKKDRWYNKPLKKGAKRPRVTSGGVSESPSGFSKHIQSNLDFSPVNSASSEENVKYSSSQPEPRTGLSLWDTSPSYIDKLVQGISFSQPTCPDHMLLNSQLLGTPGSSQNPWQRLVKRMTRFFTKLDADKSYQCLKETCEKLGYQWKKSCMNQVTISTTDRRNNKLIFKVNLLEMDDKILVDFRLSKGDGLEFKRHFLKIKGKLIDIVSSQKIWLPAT

[3] = mouse, in vivo, po
mTmG = assay: In vivo efficacy, mTmG syngeneic mouse model; conditions: in combination with a PD1/PD-L1 inhibitor; data not shown
Protocol: as §1, §2

[4] = system: cryopreserved hepatocytes; assay: Rank order of stability in cryopreserved hepatocytes across species; format: in vitro ADME, human, mouse, rat, dog, minipig and monkey; conditions: 10 μM, up to 4 hours
Protocol: The formation of SRA737-related metabolites was determined in cryopreserved hepatocytes from human, mouse, rat, dog, minipig and monkey samples after incubation with SRA737 at a nominal concentration of 10 μM for up to 4 hours. […] In the human hepatocyte preparation, approximately 67% of the parent remained after 4 hours of incubation compared to 75% and 7% in the rat and minipig preparations, respectively. Eight human SRA737 metabolites were observed. All SRA737 metabolites formed by human hepatocytes were also formed by monkey hepatocytes. Six metabolites were present at equal or greater abundance in the monkey.

[5] = Phase 1 clinical trial, SRA737 in combination with gemcitabine dose escalation; format: in vivo; conditions: human, plasma, oral, 20 mg, Day −7, mean, n = 8-10
[6] = GLP 28-day repeat oral dose toxicity and toxicokinetics, mouse
Renca (renal cancer) = assay: In vivo efficacy, Renca syngeneic model; set-up: species or system mouse; conditions: data not shown
Protocol: as §1, §2

CYP1A2 = CYP1A2 induction in vitro; format: in vitro ADME; conditions: positive control omeprazole, concentration dependent
[7] = female, mouse, in vivo, po, 10 mg/kg/day
[8] = female, mouse, in vivo, po, 40 mg/kg/day
[9] = female, mouse, in vivo, po, 75 mg/kg/day
[10] = male, mouse, in vivo, po, 10 mg/kg/day
[11] = male, mouse, in vivo, po, 40 mg/kg/day
[12] = male, mouse, in vivo, po, 75 mg/kg/day

## N#Cc1cnc(Nc2cc(NCC3CNCCO3)c(C(F)(F)F)cn2)cn1 (stereo not shown) [SRA737, 5-[[4-[[morpholin-2-yl]methylamino]-5-(trifluoromethyl)-2-pyridyl]amino]pyrazine-2-carbonitrile]
[1]
  antitumor activity: Significant, dose-dependent antitumor activity
[2]
  permeability in the PAMPA assay: low
Chk1
  cytotoxicity of genotoxic chemotherapeutic agents and targeted agents: dose-dependent potentiation
  genotoxicity-induced checkpoint arrest: dose-dependent inhibition
Chk1; data not shown
  genotoxic chemotherapy-induced Chk1 autophosphorylation: potently inhibited
[3]
  MTD: 225 mg/m^2/day
mTmG
  antitumor activity: Significant antitumor activity
[4]
  rank order of stability from most stable to least stable: rat≈mouse>monkey≈human>>dog>>minipig
[5]
  Cmax: 31.3 ng/mL
  Tmax: 1.9 h
[6]; [7]
  AUC(0-t): 3610 ng·h/mL
  Cmax: 918 ng/mL
  half-life: 5.18 h
[6]; [8]
  AUC(0-t): 24800 ng·h/mL
  Cmax at 28 days: 2350 ng/mL
  half-life: 5.09 h
[6]; [9]
  AUC(0-t): 45500 ng·h/mL
  Cmax: 4030 ng/mL
  half-life: 6.96 h
[6]; [10]
  AUC(0-t): 4410 ng·h/mL
  Cmax: 903 ng/mL
[6]; [11]
  AUC(0-t): 34300 ng·h/mL
  Cmax at 28 days: 3250 ng/mL
  half-life: 6.22 h
[6]; [12]
  AUC(0-t): 68600 ng·h/mL
  Cmax: 5450 ng/mL
  half-life: 8.36 h
[6]; mouse pivotal study, dose-dependent, reversible on cessation
  toxicological findings: bone marrow toxicity
[6]; mouse, in vivo, po
  MTD at 28 days: 75 mg/kg/day
Renca (renal cancer)
  single agent efficacy: single agent efficacy
CYP1A2
  induction of CYP1A2: < 10 % positive control

Reference: patent US20200397796A1, “METHODS OF TREATMENT OF CANCER COMPRISING CHK1 INHIBITORS” (SIERRA ONCOLOGY, INC., priority 2018, published 2020)
